{"source": "patent US20250090558A1", "about": "“APPLICATION OF M[…] PROMOTING BONE FORMATION AND PREVENTING-TREATING OSTEOPOROSIS” (The First Affiliated Hospital of Zhejiang Chinese Medical …, priority 2023, published 2025)", "key": {"OVX model mice": {"test_system": "OVX model mice", "assay": "ovariectomy (OVX) model mouse, estrogen-deficient osteoporosis", "assay_type": "in vivo", "details": "for number of TRAP-positive cells: distal femur sections"}, "[1]": {"test_system": "mouse model with femoral distal bone defect", "assay": "bone defect repair in mouse model with femoral distal bone defect", "assay_type": "in vivo"}, "osteoblasts": {"test_system": "osteoblasts", "assay": "alkaline phosphatase staining, osteogenic differentiation of osteoblasts", "assay_type": "cell-based, mouse", "details": "in vitro; 2.5 μM, 5.0 μM, 10 μM"}, "[2]": {"test_system": "livers, hearts, kidneys, and spleens of OVX model mice", "assay": "biosafety evaluation, HE staining of organs in OVX model mice", "assay_type": "in vivo, mouse", "details": "low-dose and high-dose, 8 weeks of intervention", "source_text": "The livers, hearts, kidneys, and spleens of the mice in the OVX model post-intervention with miltefosine for 8 weeks are collected, and the tissue morphology of these organs is observed through hematoxylin and eosin (HE) staining."}, "primary osteoblasts [3]": {"test_system": "primary osteoblasts", "assay": "cell counting kit-8 (CCK-8) assay, viability of primary osteoblasts", "assay_type": "cell-based, mouse"}, "[4]": {"test_system": "Ppm1a knockout (Ppm1a−/−) mice with bone defect", "assay_type": "in vivo, mouse"}, "primary osteoblasts [5]": {"test_system": "primary osteoblasts", "assay": "RT-qPCR of osteogenic genes Sp7, Bglap, Alpl in primary osteoblasts", "details": "RT-PCR", "experimental": "After euthanizing 3-5-day-old mouse with CO2, the euthanized mouse is soaked in 70% alcohol for disinfection for 15 minutes. The disinfected mouse is then carefully skinned from a top of the skull, and the skull tissue blocks are placed in an a-modified eagle medium (α-MEM) digestion culture medium containing 1 mg/mL collagenase-A and 1% penicillin/streptomycin. The skull tissue blocks are digested at 37° C. for 6 hours, with the cell tissue blocks being pipetted and blown every hour. After the digestion of the tissue blocks is complete to obtain a mixture, the mixture is filtered through a 70-μm cell strainer, centrifuged at 1000 revolutions per minute (rpm) for 5 minutes, and then resuspended in α-MEM culture medium to obtain mixed cells. The mixed cells are inoculated in a well plate to obtain osteoblasts, and the osteoblasts are cultured in complete α-MEM medium containing 10% fetal bovine serum. When a cell adhesion convergence degree of the osteoblasts reaches 60-70%, the osteoblasts are induced for osteogenic differentiation with an osteogenic culture medium containing ascorbic acid (50 g/mL) and β-glycerophosphate (10 millimoles per liter abbreviated as mM) for 7 days before the cells are collected for the next step of the experiment.\n1.1.7 Extraction of Messenger Ribonucleic Acid (mRNA) of Cells and Detection of Reverse Transcription Quantitative Polymerase Chain Reaction (RT-qPCR)\nTRIzol reagent (i.e., TRI reagent®) is used to harvest and extract total RNA from the osteoblast cultures. The mRNA is then reverse transcribed into complementary deoxyribonucleic acid (DNA) using the TaqMan reverse transcription kit (Biomake). After that, a real-time quantitative polymerase chain reaction (RT-qPCR) is conducted with the SYBR Premix Ex Taq™ II."}, "[6]": {"details": "8 weeks post-OVX, vs control group"}, "[7]": {"details": "CT analysis, one week after operation"}}, "data": [{"smiles": "CCCCCCCCCCCCCCCCOP([O])(=O)OCC[N+](C)(C)C", "note": "(stereo not drawn) [miltefosine, hexadecylphosphocholine]", "values": [{"measurement": "BMD at the distal femur", "setting": "OVX model mice; 8 weeks post-OVX", "result": "significantly increase"}, {"measurement": "Conn.Dn", "setting": "OVX model mice; 8 weeks post-OVX", "result": "improve"}, {"measurement": "SMI of the bone tissue", "setting": "OVX model mice; 8 weeks post-OVX", "result": "improve"}, {"measurement": "bone loss at the distal femur (histomorphometric analysis, ABH/OG, trabecular bone area fraction)", "setting": "OVX model mice; 8 weeks post-OVX", "result": "reduce bone loss"}, {"measurement": "number of osteoblasts on the trabecular bone surface", "setting": "OVX model mice; 8 weeks post-OVX", "result": "increase"}, {"measurement": "BV/TV of trabecular bone", "setting": "OVX model mice; [6]", "result": "significantly increased"}, {"measurement": "Tb.N", "setting": "OVX model mice; [6]", "result": "significantly increased"}, {"measurement": "Tb.Sp", "setting": "OVX model mice; [6]", "result": "markedly reduced"}, {"measurement": "Tb.Th", "setting": "OVX model mice; [6]", "result": "significantly increased"}, {"measurement": "expression level of mature osteoclast marker cathepsin K (CTSK)", "setting": "OVX model mice; control group vs treated groups", "result": "no significant difference"}, {"measurement": "bone formation by ALP immunohistochemical staining", "setting": "OVX model mice; distal femur, 8 weeks post-OVX", "result": "significantly promote the bone formation"}, {"measurement": "bone formation by immunofluorescence staining for OCN", "setting": "OVX model mice; distal femur, 8 weeks post-OVX", "result": "significantly promote the bone formation"}, {"measurement": "formation of adipocytes (Fabp4 immunohistochemical staining)", "setting": "OVX model mice; distal femur, 8 weeks post-OVX", "result": "no obvious effect"}, {"measurement": "number of TRAP-positive cells", "setting": "OVX model mice; high-dose", "result": "slightly reduces"}, {"measurement": "bone loss at the distal metaphysis of the femur (micro-CT)", "setting": "OVX model mice; low-dose and high-dose groups, 8 weeks post-OVX", "result": "significantly less"}, {"measurement": "number of TRAP-positive cells", "setting": "OVX model mice; low-dose", "result": "does not affect"}, {"measurement": "BMD in the bone defect repair area", "setting": "[1]; [7]", "result": "increase"}, {"measurement": "BV/TV in the bone defect repair area", "setting": "[1]; [7]", "result": "increase"}, {"measurement": "trabecular number (Tb.N) in the bone defect repair area", "setting": "[1]; [7]", "result": "increase"}, {"measurement": "expression level of osteocalcin (OCN) in the bone defect repair area", "setting": "[1]; immunohistochemistry, vs control group", "result": "significantly increased"}, {"measurement": "bone repair (μ-CT scans of femur)", "setting": "[1]; one week after model creation", "result": "effectively accelerate bone repair"}, {"measurement": "area of new bone in the bone defect area (SO/FG staining)", "setting": "[1]; vs control (vehicle) group, one week after operation", "result": "significantly larger"}, {"measurement": "osteogenic differentiation capacity of osteoblasts (alkaline phosphatase staining)", "setting": "osteoblasts", "result": "significantly enhance"}, {"measurement": "tissue morphology of livers, hearts, kidneys, and spleens (HE staining)", "setting": "[2]", "result": "no obvious lesions or pathological changes"}, {"measurement": "effect on the viability of the primary osteoblasts", "setting": "primary osteoblasts [3]; 0.5 μM to 20 μM in vitro", "result": "no significant effect"}, {"measurement": "cell death of the primary osteoblasts", "setting": "primary osteoblasts [3]; 50 μM", "result": "approximately 50%"}, {"measurement": "osteogenic effects in bone defect repair (Micro-CT)", "setting": "[4]", "result": "could not exert the above osteogenic effects"}, {"measurement": "expression of osteogenic gene Alpl (mRNA)", "setting": "primary osteoblasts [5]", "result": "upregulate"}, {"measurement": "expression of osteogenic gene Bglap (mRNA)", "setting": "primary osteoblasts [5]", "result": "upregulate"}, {"measurement": "expression of osteogenic gene Sp7 (mRNA)", "setting": "primary osteoblasts [5]", "result": "upregulate"}]}]}
